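Dose response: 5 concentrations. Exposure: 48 h. Format: 96-well plates. Endpoint: linear interpolation; highest concentration if not reached. GI50 marks 50% less growth.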 Activity calls are given as the source filed them. Rule as the data show it: active = GI50 up to about 1.1 µM and inactive = higher.
How the values were obtained:
Assay in all cases: inhibition of tumour cell growth, NCI panel, 48 h
SNB-19 = tested on: SNB-19
HOP-62 = tested on: HOP-62
NCI-H460 = tested on: NCI-H460
MDA-N = tested on: MDA-N
M14 = tested on: M14
CCRF-CEM = tested on: CCRF-CEM
MCF7 = tested on: MCF7
MDA-MB-435 = tested on: MDA-MB-435
UACC-62 = tested on: UACC-62
IGROV-1 = tested on: IGROV-1
RPMI-8226 = tested on: RPMI-8226
SF-539 = tested on: SF-539
HT-29 = tested on: HT-29
Malme-3M = tested on: Malme-3M
786-0 = tested on: 786-0
SK-MEL-5 = tested on: SK-MEL-5
SK-OV-3 = tested on: SK-OV-3
A549 = tested on: A549

Measured: GI50

CCCCN(CCCC)CCC(O)c1cc(-c2ccc(C(F)(F)F)cc2)nc(-c2ccc(C(F)(F)F)cc2)c1 (stereo not drawn)
inactive: SNB-19 > 100 µM | HOP-62 > 100 µM | NCI-H460 > 100 µM | MDA-N > 100 µM | M14 > 100 µM | CCRF-CEM > 100 µM | MCF7 > 100 µM | MDA-MB-435 > 100 µM | UACC-62 > 100 µM | IGROV-1 > 100 µM | RPMI-8226 > 100 µM | SF-539 > 100 µM | HT-29 > 100 µM | Malme-3M > 100 µM | 786-0 > 100 µM

c1ccc(-c2nnc(CCCCCCCCc3nnc(-c4ccccc4)o3)o2)cc1
inactive: SK-MEL-5 > 100 µM | SK-OV-3 > 100 µM | A549 32 µM | SNB-19 > 100 µM | HOP-62 97.3 µM | NCI-H460 50.5 µM | M14 > 100 µM | CCRF-CEM 52.5 µM | MCF7 38.2 µM | MDA-MB-435 > 100 µM | IGROV-1 66.5 µM | SF-539 > 100 µM | HT-29 45.1 µM | Malme-3M > 100 µM | 786-0 74 µM

COc1ccc2c(c1)OCC1Cc3cccc(OC)c3OC21 (stereo not drawn)
inactive: SK-MEL-5 17.7 µM | SK-OV-3 > 100 µM | A549 70 µM | HOP-62 > 100 µM | MDA-N 50.5 µM | M14 96.2 µM | CCRF-CEM 40 µM | MDA-MB-435 28.7 µM | UACC-62 71.1 µM | IGROV-1 66.7 µM | RPMI-8226 36.9 µM | SF-539 > 100 µM | HT-29 72.8 µM | Malme-3M 70.8 µM | 786-0 > 100 µM

O=[N+]([O-])c1cc2c(cc1O)[nH]c1cccc([N+](=O)[O-])c12
inactive: SK-MEL-5 40.7 µM | A549 > 100 µM | SNB-19 > 100 µM | HOP-62 > 100 µM | NCI-H460 > 100 µM | M14 > 100 µM | CCRF-CEM > 100 µM | RPMI-8226 > 100 µM | SF-539 > 100 µM | HT-29 > 100 µM | Malme-3M > 100 µM | 786-0 > 100 µM

COC(=O)Cc1cc(=O)[nH]c2c1C(=O)CCC2
inactive: SK-MEL-5 > 100 µM | SK-OV-3 > 100 µM | A549 > 100 µM | SNB-19 > 100 µM | NCI-H460 > 100 µM | M14 > 100 µM | CCRF-CEM > 100 µM | IGROV-1 > 100 µM | RPMI-8226 > 100 µM | SF-539 > 100 µM | HT-29 > 100 µM | Malme-3M > 100 µM | 786-0 > 100 µM

N#Cc1c(-c2ccc([N+](=O)[O-])cc2)cc(-c2ccc(Nc3ccnc4cc(C(F)(F)F)ccc34)cc2)[nH]c1=O
inactive: SK-MEL-5 > 100 µM | SK-OV-3 > 100 µM | A549 > 100 µM | SNB-19 24.4 µM | HOP-62 > 100 µM | NCI-H460 > 100 µM | M14 80.9 µM | CCRF-CEM > 100 µM | MCF7 > 100 µM | MDA-MB-435 > 100 µM | UACC-62 > 100 µM | IGROV-1 > 100 µM | RPMI-8226 > 100 µM | SF-539 > 100 µM | HT-29 92.9 µM | Malme-3M > 100 µM | 786-0 51.9 µM

Cc1cc(Cl)ccc1C(=O)c1ccc2ccccc2c1C(=O)O
inactive: SK-MEL-5 > 100 µM | A549 > 100 µM | SNB-19 > 100 µM | NCI-H460 > 100 µM | MDA-N > 100 µM | M14 > 100 µM | CCRF-CEM > 100 µM | MCF7 41.5 µM | MDA-MB-435 > 100 µM | UACC-62 > 100 µM | IGROV-1 > 100 µM | RPMI-8226 > 100 µM | SF-539 > 100 µM | HT-29 > 100 µM | Malme-3M > 100 µM | 786-0 > 100 µM

CO/C(=N\N=C\c1ccc(Cl)cc1Cl)c1ccncc1
inactive: A549 > 10 µM | SNB-19 > 10 µM | HOP-62 > 10 µM | NCI-H460 > 10 µM | MDA-N 4.51 µM | M14 > 10 µM | CCRF-CEM > 10 µM | MCF7 > 10 µM | MDA-MB-435 3.66 µM | RPMI-8226 6.24 µM | HT-29 > 10 µM | Malme-3M > 10 µM | 786-0 > 10 µM

COC(=O)[C@@]12CCCC(=O)[C@@H]1[C@H]1CCC[C@H]12
inactive: SK-MEL-5 > 100 µM | SK-OV-3 > 100 µM | A549 > 100 µM | SNB-19 > 100 µM | HOP-62 > 100 µM | NCI-H460 > 100 µM | MDA-N > 100 µM | M14 > 100 µM | CCRF-CEM > 100 µM | MCF7 > 100 µM | MDA-MB-435 > 100 µM | UACC-62 > 100 µM | IGROV-1 > 100 µM | RPMI-8226 > 100 µM | SF-539 > 100 µM | HT-29 > 100 µM | Malme-3M > 100 µM | 786-0 > 100 µM

CO/N=C(\C(=O)Nn1cn[n+](CC(=O)[O-])c1)c1csc(N)n1
inactive: SK-MEL-5 > 10 µM | SK-OV-3 > 10 µM | A549 > 10 µM | HOP-62 > 10 µM | NCI-H460 > 10 µM | MDA-N > 10 µM | M14 > 10 µM | CCRF-CEM > 10 µM | MCF7 > 10 µM | UACC-62 > 10 µM | IGROV-1 > 10 µM | RPMI-8226 > 10 µM | HT-29 > 10 µM | 786-0 > 10 µM

Source: ChEMBL document CHEMBL1201862, “PubChem BioAssay data set” (2004)
